According to patent publication US11339189B2, “DNA primase and gyrase inhibitors” (B. G. NEGEV TECHNOLOGIES AND APPLICATIONS LTD., AT …, priority 2016, dated 2022):

Tests used:
[1] = target: T1, T7 DNA primase (primase domain of bacteriophage T7 gene 4 protein, residues 1-271) (Escherichia phage T7, UniProt P03692); assay: Oligoribonucleotide synthesis assay: template-directed diribonucleotide (pppAC) synthesis catalyzed by the T7 DNA primase domain (FIG. 5); format: biochemical; conditions: T7 gene 4 primase domain (residues 1-271, expressed in E. coli BL21(DE3)); DNA template with recognition site 5'-GTC-3' (5'-GGGTCA10-3'), ATP, [α-32P]-CTP, 10 mM MnCl2, pH 7.5; gel autoradiography of pppAC; four parameter logistic fit; parenthesised figure not explained
T1 construct: T7 primase domain (residue: 1-271) was over-produced and purified; made in house; host or cells: E. coli BL21(DE3), plasmid pETg4P
Description: FIGS. 5A-C present a scheme summarizing the assay in which the DNA template containing the primase recognition site 5′-GTCA10-3′ enables the synthesis of only diribonucleotides pppAC (FIG. 5A), and gel bands and quantification of gel bands representing the reaction products (5′-pppAC-3′) (FIG. 5B and FIG. 5C, respectively).
Protein expression and purification: Proteins and Reagents. All chemical reagents were of molecular biology grade (Sigma); ATP and CTP (Roche Molecular Biochemicals). dNTPs and ddNTPs were purchased from USB Corp. Premade gels (10-20% linear gradients) used for SDS-PAGE and Precision Plus Protein prestained standards were purchased from BioRad (Hercules, Calif.). T7 primase domain (residue: 1-271) was over-produced and purified using metal free buffers as previously described in Mol Cell 11, 1349-60 (2003). T7 gp5 and E. Coli trx were overproduced and purified as described in J. Biol. Chem. 262, 16224-32 (1987). Gp4 was overproduced and purified as described in J. Biol. Chem. 272, 18425-33 (1997). M13 ssDNA was prepared as described in J. Biol. Chem. 261, 15208-16 (1986). [α-^32P]-CTP (800 Ci/mmol) was purchased from Perkin Elmer.
(§1) Oligoribonucleotide Synthesis Assay: Oligoribonucleotides were synthesized by DNA primase, product was measured as described in J Biol Chem 272, 5943-51 (1997) and in J Biol Chem 266, 23240-50 (1991), in reactions containing various concentrations (1.1, 3.3, and 10 μM) of gene 4 primase domain. […]
(§2) Small molecules that inhibit primase activity: to catalyze the synthesis of short RNA primers, T7 primase requires DNA with a primase recognition site, ATP and CTP, and a buffer containing divalent metal ions. […] The radioactively labeled oligoribonucleotides were separated on a denaturing polyacrylamide gel, and radioactivity was measured on an autoradiogram. The amounts of RNA-primed DNA syntheses were determined by measuring the incorporation of dTMP (see Methods). […]

[2] = Polar dissolution of inhibitors for protein-NMR experiments; format: physicochemical; conditions: among the five inhibitors
[3] = target: T2, T7 primase (gp4) with gp5/trx (Escherichia phage T7, UniProt P03692); assay: Primase dependent DNA synthesis (gp4 primers extended by gp5/trx on M13 ssDNA); format: biochemical, bacteriophage T7; conditions: 350 μM of each small molecule, FIG. 4B
T2 construct: the helicase-primase (gene product 4, gp4, full-length) was run; made in house
Method: Primase dependent DNA synthesis: RNA primers made by gp4A were extended by gp5/trx. The reaction mixture contained 10 nM M13 ssDNA, 0.3 mM dNTPs, 0.1 μCi [α-^32P] dCTP, 20 nM gp5/trx, 200 nM monomeric gp4A, and 350 μM of each compound. The reaction was incubated for 45 min at 37° C. Reaction was terminated and amount of DNA synthesis was determined as described in DNA polymerase assay.
Small molecules that inhibit the concerted activity of primase and DNA polymerase: To evaluate the ability of the small molecule candidates to inhibit the primase-dependent replication of the lagging strand of bacteriophage DNA, an overall assay that involved the concerted activity of DNA polymerase (gene product 5 and E. coli thioredoxin, gp5/trx) and the helicase-primase (gene product 4, gp4, full-length) was run. In bacteriophage T7, lagging strand DNA synthesis involves interactions between gp5/trx and gp4. Full-length gp4 is required for the synthesis of oligoribonucleotides to initiate the synthesis of Okazaki fragments.
To examine the effect of 350 μM of each small molecule on the synthesis of primers and their transfer to gp5/trx, M13 ssDNA for the synthesis of oligoribonucleotides by the primase and their extension by gp5/trx was used (FIG. 4b, inset). To initiate DNA synthesis, the primase must first synthesize tetraribonucleotides on the DNA and then transfer them to gp5/trx. In addition to the four dNTPs, ATP and CTP were also provided, and the primers that were synthesized included pppACCC, pppACAC, and pppACCA.
The Table in FIG. 6A presents the inhibitory effect of various small molecules on primase-dependent DNA synthesis mediated by gp5/trx and gene 4 helicase (gp4A). The standard reaction contained the ssM13 DNA template (10 nM), 0.3 mM dATP, dGTP, dCTP and [α-^32P] dTTP (0.1 mCi), 10 nM gp5/trx, 200 nM monomeric concentrations of […] and 250 μM of small molecule inhibitors. After incubation for 30 min at 37° C., the level of […] was determined based on the amount of [α-^32P] dTTP incorporated into DNA.

T7 primase domain = target: T3, T7 primase domain (Escherichia phage T7, UniProt P03692); assay: Oligoribonucleotide (pppAC diribonucleotide) synthesis assay; format: biochemical, bacteriophage T7; conditions: pppAC synthesis by T7 primase domain; four parameter logistic fit
T3 construct: T7 primase domain (residue: 1-271) was over-produced and purified using metal free buffers; made in house; host or cells: E. coli Bl21(DE3) containing pETg4P
Method: as §1, with “domain. Standard 10 μL reaction contained 5 μM of DNA template (5′-GGGTCA10-3′), 200 μM ATP, 200 μM [α-^32P]-CTP, and primase domain in a buffer containing 40 mM Tris-HCl (pH 7.5), 10 mM MnCl2, 10 mM DTT, and 50 mM potassium glutamate.” for “domain.”
as §2
The reaction conditions involve incubating the primase domain with an oligonucleotide containing a primase recognition sequence. […] After incubation, the radioactive products were analyzed by electrophoresis through 25% polyacrylamide gel containing 3 M urea and visualized using autoradiography.

T7 DNA primase [4] = target: T4, T7 DNA primase (Escherichia phage T7, UniProt P03692); assay: [1H,15N]-TROSY HSQC titration of labeled primase with compounds; format: binding, bacteriophage T7; conditions: compared to free T7 primase
T4 construct: T7 primase domain (residue: 1-271) was over-produced and purified using metal free buffers; made in house; host or cells: E. coli Bl21(DE3) containing pETg4P
Method: [^1H,^15N]-TROSY HSQC titration spectra of 15N,D T7 DNA primase with selected fragment molecules and compounds 1, 12, 13, 15, 17, ATP, and DNA were recorded at 25° C. on a Bruker DMX 800 MHz spectrometer equipped with TXI cryoprobes with Z gradient. Data were processed and analyzed using NMRPipe (Journal of Biomolecular NMR 6, 277-293 (1995)) and NMRView (Journal of Biomolecular Nmr 4, 603-614 (1994)).
Structural analysis of inhibitor-primase interactions: To characterize the binding of the compounds identified using FBVS, the [^15N, ^1H]-TROSY-HSQC spectra of ^15N- and D-labeled T7 primase in the presence of the selected lead compounds (FIGS. 7A-B) were measured. […] Relative to the initial scaffold alone, those shifts were more pronounced, which indicates stronger binding interactions. In addition, chemical shift perturbations upon the addition of DNA and ATP/CTP to the T7 primase domain confirmed that all three compounds bind to the active site. […] Compounds 12 and 15, whose polar dissolution values were the lowest from among the five inhibitors, were not able to achieve the concentrations needed for the protein-NMR experiments.

T7 DNA primase [5] = target: T4, T7 DNA primase; assay: Fragment based screening by STD NMR spectroscopy; format: binding, bacteriophage T7; conditions: ranked by total change in intensity and number of affected peaks; Maybridge Ro3 library
Method: NMR experiments—Fragment Based Screening: T7 primase was screened against the Maybridge Ro3 Diversity Fragment Library containing 1000 compounds using STD spectroscopy. Samples for 1D ligand-observed NMR studies contained […] T7 primase in 50 mM phosphate buffer in D2O and 10 compounds, resulting in a total of 100 samples. NMR spectra were recorded on a Bruker Avance 500 MHz equipped with a TXO cryoprobe with Z gradient and a NMR-CASE sample changer at 298 K. Ligand binding was probed using a saturation transfer difference pulse program. Saturation was achieved using on-resonance irradiation at 0 ppm with a train of Wurst pulses for a total saturation time of 1.5 s. Off resonance irradiation was centered at 40 ppm. Spectra were acquired with a sweep width of 8012.8 Hz, 8192 data points and 224 scans. Active compounds were identified by comparing the STD spectra with the corresponding reference spectra using the MestreNova software. Any compound with reduced peak intensities was considered a hit and ranked according to the percentage of intensity decrease and the number of affected peaks per compound.
Using the Maybridge Ro3 fragment library containing 1000 fragments, 100 NMR samples were prepared, each containing a mixture of 10 fragments and 50 μM T7 primase.
The 10 fragments were chosen to show minimal overlap of their 1H chemical shift to allow easy identification of the shifts. […]

T1 sequence (P03692 1-271): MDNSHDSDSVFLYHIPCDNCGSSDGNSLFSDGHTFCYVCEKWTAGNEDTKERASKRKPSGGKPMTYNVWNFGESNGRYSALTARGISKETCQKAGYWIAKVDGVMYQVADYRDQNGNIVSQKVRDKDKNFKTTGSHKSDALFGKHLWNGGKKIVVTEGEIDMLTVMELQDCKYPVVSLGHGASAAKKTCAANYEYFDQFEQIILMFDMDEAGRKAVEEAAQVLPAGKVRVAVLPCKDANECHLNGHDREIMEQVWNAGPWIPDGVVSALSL
T4 sequence (P03692 1-271): as above
T2 sequence (P03692 whole entry): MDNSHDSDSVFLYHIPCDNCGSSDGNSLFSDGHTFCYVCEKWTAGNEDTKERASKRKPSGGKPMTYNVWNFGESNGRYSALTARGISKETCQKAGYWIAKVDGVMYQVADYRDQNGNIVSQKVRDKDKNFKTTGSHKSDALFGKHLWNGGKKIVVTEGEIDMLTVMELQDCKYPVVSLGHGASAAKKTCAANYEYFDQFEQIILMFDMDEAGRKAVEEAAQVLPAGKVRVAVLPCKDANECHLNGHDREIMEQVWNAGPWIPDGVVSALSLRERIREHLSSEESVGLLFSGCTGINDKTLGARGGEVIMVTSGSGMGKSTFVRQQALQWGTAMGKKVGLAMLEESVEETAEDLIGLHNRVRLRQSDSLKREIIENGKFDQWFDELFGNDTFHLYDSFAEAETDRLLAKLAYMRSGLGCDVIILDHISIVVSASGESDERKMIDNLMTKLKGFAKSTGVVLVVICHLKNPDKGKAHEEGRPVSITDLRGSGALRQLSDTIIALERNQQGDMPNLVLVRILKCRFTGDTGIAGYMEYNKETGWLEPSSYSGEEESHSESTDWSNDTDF
T3 sequence (P03692 1-271): as the sequence (P03692 1-271) above

SMILES | IC50 [1] [µM] | decrease of primase dependent DNA synthesis [3] | chemical shift perturbations of T7 primase upon compound addition (T7 DNA primase [4]) | other results
O=C(O)c1cc2cccc([N+](=O)[O-])c2[nH]1 [Compound 17, 7-nitro-1H-indole-2-carboxylic acid] | 314 |  |  | 
O=C1Cc2c([nH]c3ccc([N+](=O)[O-])cc23)-c2ccccc2N1 [compound 12, 9-Nitro-7,12-dihydroindolo-[3,2-d][1]benzazepin-6(5)-one] |  | decreases by up to four-fold |  | polar dissolution values [2]: lowest; Hill coefficient (T7 primase domain): highest value
CCOC(=O)c1[nH]c2ccc([N+](=O)[O-])cc2c1CCC(=O)O [compound 13, 3-[2-(ethoxycarbonyl)-5-nitro-1H-indol-3-yl]propanoic acid] |  | decreases by up to four-fold | significant chemical shift perturbations | 
O=C1Cc2c([nH]c3ccc([N+](=O)[O-])cc23)-c2ccccc2N1 [Compound 12, 9-Nitro-7,12-dihydroindolo-[3,2-d][1]benzazepin-6(5)-one] | 109 |  |  | 
NC(=S)C1=Cc2ccccc2OC1 [2H-chromene-3-carbothioamide] |  |  |  | binding to T7 primase by STD spectroscopy (decrease in NMR peak intensities) (T7 DNA primase [5]): strongest binding
c1ccc2[nH]ccc2c1 [indole] |  |  |  | binding to T7 primase by STD spectroscopy (decrease in NMR peak intensities) (T7 DNA primase [5]): strongest binding
O=C(O)c1cc2cccc([N+](=O)[O-])c2[nH]1 [compound 17, 7-nitro-1H-indole-2-carboxylic acid] |  | decreases by up to four-fold | significant chemical shift perturbations | 
O=C(Nc1ccc2c(c1)OCO2)c1cc2cccc([N+](=O)[O-])c2[nH]1 [compound 15, N-(1,3-benzodioxol-5-yl)-7-nitro-1H-indole-2-carboxamide] |  | decreases by up to four-fold |  | polar dissolution values [2]: lowest
O=C(Nc1ccc2c(c1)OCO2)c1cc2cccc([N+](=O)[O-])c2[nH]1 [Compound 15, N-(1,3-benzodioxol-5-yl)-7-nitro-1H-indole-2-carboxamide] | 56.7 |  |  | 
O=C(O)/C=C/C1=Cc2cc(Cl)ccc2OC1 [compound 1, (2E)-3-(6-chloro-2H-chromen-3-yl)acrylic acid] |  | decreases by up to four-fold | significant chemical shift perturbations | 
